Test results: ChEMBL document CHEMBL3132824, “Discovery of novel pyridazinylthioacetamides as potent HIV-1 NNRTIs using a structure-based bioisosterism approach” (Medchemcomm, 2013)

Columns and labels:
[1] = Selectivity ratio of CC50 for HIV-1 3B mock-infected human MT4 cells to EC50 for HIV-1 3B infected in human MT4 cells; assay type: ADME, cell-based; conditions: read-out: Ratio CC50/EC50
[2] = tested on: Human immunodeficiency virus 1; assay: Antiviral activity against HIV-1 3B infected in human MT4 cells assessed as inhibition of virus-induced cytopathicity by MTT assay; assay type: functional, organism-based; conditions: Human immunodeficiency virus 1, 3B
[3] = Cytotoxicity against HIV-2 ROD mock-infected human MT4 cells assessed as reduction in cell viability by MTT assay; assay type: cell-based; conditions: HIV-2 ROD mock-infected MT4 cells
[4] = Selectivity ratio of CC50 for HIV-2 ROD mock-infected human MT4 cells to EC50 for HIV-2 ROD infected in human MT4 cells; assay type: ADME, cell-based; conditions: read-out: Ratio CC50/EC50
[5] = tested on: Human immunodeficiency virus 2; assay: Antiviral activity against HIV-2 ROD infected in human MT4 cells assessed as inhibition of virus-induced cytopathicity by MTT assay; assay type: functional, organism-based; conditions: Human immunodeficiency virus 2, ISOLATE ROD
[6] = Cytotoxicity against HIV-1 3B mock-infected human MT4 cells assessed as reduction in cell viability by MTT assay; assay type: cell-based; conditions: HIV-1 3B mock-infected MT4 cells
[7] = molecular target: Human immunodeficiency virus type 1 reverse transcriptase (Human immunodeficiency virus 1, UniProt Q72547); assay: Inhibition of purified recombinant HIV-1 reverse transcriptase assessed as inhibition of biotin-dUTP incorporation using poly(rC)-oligo(dG) as template primer

SMILES | selectivity ratio [1] | EC50 [2] | CC50 [3] | selectivity ratio [4] | EC50 [5] | CC50 [6] | IC50 [7]
O=C(CSc1nnccc1-c1cccc2ccccc12)c1ccc(Cl)cc1Cl | 10 | 5.46 µM | 55 µM | < 1 | > 55 µM | 54.6 µM | 
O=C(CSc1nnccc1-c1cccc2ccccc12)Nc1ccccc1 | 105 | 1.93 µM | 174 µM | < 1 | > 174 µM | 203 µM | 
O=C(CSc1nnccc1-c1cccc2ccccc12)Nc1ccccc1Cl | 177 | 0.19 µM | 35 µM | < 1 | > 35 µM | 34.2 µM | 
O=C(CSc1nnccc1-c1cccc2ccccc12)Nc1ccc(Cl)cc1Cl | > 684 | 0.42 µM | 232 µM | < 1 | > 232 µM | > 284 µM | 
O=C(CSc1nnccc1-c1cccc2ccccc12)Nc1ccccc1F | 799 | 0.26 µM | 241 µM | < 1 | > 241 µM | 204 µM | 
O=C(CSc1nnccc1-c1cccc2ccccc12)Nc1ccccc1Br | 151 | 0.21 µM | 31.3 µM | < 1 | > 31.3 µM | 31.5 µM | 
Cc1ccc(NC(=O)CSc2nnccc2-c2cccc3ccccc23)c(Br)c1 | 929 | 0.2 µM | 215 µM | < 1 | > 215 µM | 182 µM | 
CC(=O)c1ccc(NC(=O)CSc2nnccc2-c2cccc3ccccc23)c(Br)c1 | 370 | 0.13 µM | 48.5 µM | < 1 | > 48.5 µM | 46.3 µM | 
COC(=O)c1ccc(NC(=O)CSc2nnccc2-c2cccc3ccccc23)c(Br)c1 | 1110 | 0.14 µM | > 246 µM | < 1 | > 246 µM | 159 µM | 
CCOC(=O)c1ccc(NC(=O)CSc2nnccc2-c2cccc3ccccc23)c(Br)c1 | 420 | 0.56 µM | > 239 µM | < 1 | > 239 µM | 237 µM | 
Cc1ccc(NC(=O)CSc2nnccc2-c2cccc3ccccc23)c([N+](=O)[O-])c1 | 1440 | 0.14 µM | 244 µM | < 1 | > 244 µM | 204 µM | 
O=C(CSc1nnccc1-c1cccc2ccccc12)Nc1ccccc1[N+](=O)[O-] | 2150 | 0.046 µM | 135 µM | < 1 | > 135 µM | 99.9 µM | 4.06 µM
Cc1ccccc1NC(=O)CSc1nnccc1-c1cccc2ccccc12 | 130 | 1.09 µM | 150 µM | < 1 | > 150 µM | 142 µM | 
O=C(CSc1nnccc1-c1cccc2ccccc12)Nc1cccnc1Cl | 573 | 0.27 µM | 164 µM | < 1 | > 164 µM | 156 µM | 
O=C(CSc1nnccc1-c1cccc2ccccc12)N1CCCc2ccccc21 | < 1 | > 34.5 µM | 35 µM | < 1 | > 35 µM | 34.5 µM | 
O=C(CSc1nnccc1-c1cccc2ccccc12)N1CCc2ccccc2C1 | 29 | 1.15 µM | 36.5 µM | < 1 | > 36.5 µM | 34 µM | 
CC(C)Nc1cccnc1N1CCN(C(=O)c2cc3cc(NS(C)(=O)=O)ccc3[nH]2)CC1 [DELAVIRDINE] | > 1100 |  | > 36.2 µM |  |  | > 36.2 µM | 
O=C1Nc2ccc(Cl)cc2[C@@](C#CC2CC2)(C(F)(F)F)O1 [EFAVIRENZ] | > 1190 |  | > 6.34 µM |  |  | > 6.34 µM | 
Cc1ccnc2c1NC(=O)c1cccnc1N2C1CC1 [NEVIRAPINE] |  |  | > 15 µM |  |  | > 15 µM | 
Nc1ccn([C@H]2CC[C@@H](CO)O2)c(=O)n1 [ZALCITABINE] | > 93 |  | > 94.7 µM | > 74 | 1.28 µM | > 94.7 µM | 
Cc1cn([C@H]2C[C@H](N=[N+]=[N-])[C@@H](CO)O2)c(=O)[nH]c1=O [ZIDOVUDINE] | 12200 | 0.021 µM |  | 56900 | 0.0045 µM |  | 
